Results reported in patent US20250051346A1 (priority 2021, published 2025).
pEC50, pIC50: −log10 of the molar value. Where two headings read alike, the source gives them in different places.

What was measured:
5-HT2A [1] = biological target: T1, 5-HT2A (Homo sapiens, UniProt P28223); experiment: Serotonin 5-HT2A in vitro cellular IPOne agonism assay; type: cell-based; set-up: host or cells: CHO-K1; conditions: CHO-K1 cells, 60 min
Method: Serotonin 5-HT2A In Vitro Cellular IPOne Agonism Assay. The 5-HT2A IPOne HTRF assay was performed at Epics Therapeutics S.A. (Belgium, FAST-0505I) using conventional methods. Briefly, CHO-K1 cells expressing human recombinant 5-HT2A receptor grown to mid-log phase in culture media without antibiotics were detached with PBS-EDTA, centrifuged, and resuspended in medium without antibiotics buffer. 20,000 cells are distributed in a 96 well plate and incubated overnight at 37° C. with 5% CO2.
For agonist testing, the medium was removed and 20 μl of assay buffer plus 20 μl of test compound or reference agonist were added in each well. The plate was incubated for 60 min. at 37° C. with 5% CO2.
After addition of the lysis buffer containing IP1-d2 and anti-IP1 cryptate detection reagents, plates were incubated 1-hour at room temperature, and fluorescence ratios were measured according to the manufacturer specification, with the HTRF kit.

5-HT2A [2] = biological target: T1, 5-HT2A; experiment: Serotonin 5-HT2A in vitro radioligand binding competition assay; set-up: purchased Epics Therapeutics S.A. (Belgium), contract assay FAST-0505B; host or cells: membrane extracts; conditions: [3H]-DOI radiotracer, membrane extracts, read-out: 5HT2A R[…] ACTIVITY
Method: Serotonin 5-HT2A In Vitro Radioligand Binding Competition Assay. The 5-HT2A radioligand binding competition assay was performed at Epics Therapeutics S.A. (Belgium, FAST-0505B) using conventional methods. Briefly, competition binding was performed in duplicate in the wells of a 96 well plate (Master Block, Greiner, 786201) containing binding buffer (optimized for each receptor), membrane extracts (amount of protein/well optimized for each receptor), radiotracer [^3H]-DOI (final concentration optimized for each receptor) and test compound. Nonspecific binding was determined by co-incubation with 200-fold excess of cold competitor. The samples were incubated in a final volume of 0.1 ml at a temperature and for a duration optimized for each receptor and then filtered over filter plates. Filters were washed six times with 0.5 ml of ice-cold washing buffer (optimized for each receptor) and 50 μl of Microscint 20 (Packard) were added in each well. The plates were incubated 15 min on an orbital shaker and then counted with a TopCount™ for 1 min/well.

T1 sequence (P28223 whole entry): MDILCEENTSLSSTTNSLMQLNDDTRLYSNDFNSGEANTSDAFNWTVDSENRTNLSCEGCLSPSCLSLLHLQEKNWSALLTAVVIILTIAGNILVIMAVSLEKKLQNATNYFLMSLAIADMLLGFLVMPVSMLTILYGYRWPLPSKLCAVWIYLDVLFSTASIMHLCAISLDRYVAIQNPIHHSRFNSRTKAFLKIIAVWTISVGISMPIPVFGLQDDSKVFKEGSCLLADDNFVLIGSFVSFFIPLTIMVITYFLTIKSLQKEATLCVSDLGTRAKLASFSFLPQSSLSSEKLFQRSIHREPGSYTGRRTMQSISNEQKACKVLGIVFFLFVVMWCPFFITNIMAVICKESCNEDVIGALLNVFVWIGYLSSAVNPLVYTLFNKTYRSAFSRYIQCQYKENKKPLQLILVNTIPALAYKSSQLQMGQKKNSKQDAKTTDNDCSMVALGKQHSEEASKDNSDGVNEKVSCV

Row | SMILES | pEC50 (5-HT2A [1]; benzofurans) | pIC50 (5-HT2A [2]; benzofurans) | pEC50 (5-HT2A [1]; benzothiophenes) | pIC50 (5-HT2A [2]; benzothiophenes)
1 | Fc1cccc2oc3c(c12)CN(C1CCC1)CCC3 [Compound 1, 2-cyclobutyl-10-fluoro-2,3,4,5-tetrahydro-1H-benzofuro[3,2-c]azepine] | < 5.00 | < 5.00 |  | 
2 | Fc1cccc2oc3c(c12)CCN(C1CCC1)CC3 [Compound 2, 3-cyclobutyl-10-fluoro-2,3,4,5-tetrahydro-1H-benzofuro[2,3-d]azepine] | 5.00 to 6.00 | 5.00 to 6.00 |  | 
3 | CN1CCc2oc3cccc(F)c3c2CC1 [Compound 3, 10-fluoro-3-methyl-2,3,4,5-tetrahydro-1H-benzofuro[2,3-d]azepine] | 6.00 to 7.00 | 6.00 to 7.00 |  | 
4 | CN1CCCc2oc3cccc(F)c3c2C1 [Compound 4, 10-fluoro-2-methyl-2,3,4,5-tetrahydro-1H-benzofuro[3,2-c]azepine] | < 5.00 | 5.00 to 6.00 |  | 
5 | Fc1cccc2oc3c(c12)CN(CC(F)(F)F)CCC3 [Compound 5, 10-fluoro-2-(2,2,2-trifluoroethyl)-2,3,4,5-tetrahydro-1H-benzofuro[3,2-c]azepine] | < 5.00 | < 5.00 |  | 
6 | Fc1ccc2c3c(oc2c1)CCCNC3 [Compound 6, 8-fluoro-2,3,4,5-tetrahydro-1H-benzofuro[3,2-c]azepine] | 5.00 to 6.00 | < 5.00 |  | 
7 | Fc1cccc2oc3c(c12)CNCCC3 [Compound 7, 10-fluoro-2,3,4,5-tetrahydro-1H-benzofuro[3,2-c]azepine] | < 5.00 | < 5.00 |  | 
8 | Fc1cccc2oc3c(c12)CCN(CC(F)(F)F)CC3 [Compound 8, 10-fluoro-3-(2,2,2-trifluoroethyl)-2,3,4,5-tetrahydro-1H-benzofuro[2,3-d]azepine] | 5.00 to 6.00 | < 5.00 |  | 
9 | CN1CCCc2oc3cc(F)ccc3c2C1 [Compound 9, 8-fluoro-2-methyl-2,3,4,5-tetrahydro-1H-benzofuro[3,2-c]azepine] | 5.00 to 6.00 | 5.00 to 6.00 |  | 
10 | Fc1cccc2oc3c(c12)CCNCC3 [Compound 10, 10-fluoro-2,3,4,5-tetrahydro-1H-benzofuro[2,3-d]azepine] | 6.00 to 7.00 | 6.00 to 7.00 |  | 
11 | COc1ccc2c3c(oc2c1)CCCN(CC(F)(F)F)C3 [Compound 11, 8-methoxy-2-(2,2,2-trifluoroethyl)-2,3,4,5-tetrahydro-1H-benzofuro[3,2-c]azepine] | < 5.00 | < 5.00 |  | 
12 | COc1ccc2c3c(oc2c1)CCCN(C1CCC1)C3 [Compound 12, 2-cyclobutyl-8-methoxy-2,3,4,5-tetrahydro-1H-benzofuro[3,2-c]azepine] | < 5.00 | < 5.00 |  | 
13 | FC(F)(F)CN1CCCc2oc3ccccc3c2C1 [Compound 13, 2-(2,2,2-trifluoroethyl)-2,3,4,5-tetrahydro-1H-benzofuro[3,2-c]azepine] | < 5.00 | < 5.00 |  | 
14 | COc1cccc2oc3c(c12)CCN(C1CCC1)CC3 [Compound 15, 3-cyclobutyl-10-methoxy-2,3,4,5-tetrahydro-1H-benzofuro[2,3-d]azepine] | 5.00 to 6.00 | 5.00 to 6.00 |  | 
15 | COc1cccc2oc3c(c12)CCNCC3 [Compound 16, 10-methoxy-2,3,4,5-tetrahydro-1H-benzofuro[2,3-d]azepine] | 7.00 to 8.00 | 6.00 to 7.00 |  | 
16 | COc1ccc2c3c(oc2c1)CCCN(C)C3 [Compound 17, 8-methoxy-2-methyl-2,3,4,5-tetrahydro-1H-benzofuro[3,2-c]azepine] | < 5.00 | < 5.00 |  | 
17 | COc1cccc2oc3c(c12)CNCCC3 [Compound 18, 10-methoxy-2,3,4,5-tetrahydro-1H-benzofuro[3,2-c]azepine] | 5.00 to 6.00 | 5.00 to 6.00 |  | 
18 | COc1ccc2c3c(oc2c1)CCCNC3 [Compound 19, 8-methoxy-2,3,4,5-tetrahydro-1H-benzofuro[3,2-c]azepine] | < 5.00 | < 5.00 |  | 
19 | c1ccc2c3c(oc2c1)CCCN(C1CCC1)C3 [Compound 20, 2-cyclobutyl-2,3,4,5-tetrahydro-1H-benzofuro[3,2-c]azepine] | < 5.00 | < 5.00 |  | 
20 | CN1CCCc2oc3ccccc3c2C1 [Compound 21, 2-methyl-2,3,4,5-tetrahydro-1H-benzofuro[3,2-c]azepine] | < 5.00 | < 5.00 |  | 

Row | SMILES | pEC50 (5-HT2A [1]; benzofurans) | pIC50 (5-HT2A [2]; benzofurans) | pEC50 (5-HT2A [1]; benzothiophenes) | pIC50 (5-HT2A [2]; benzothiophenes)
21 | c1ccc2c3c(oc2c1)CCCNC3 [Compound 22, 2,3,4,5-tetrahydro-1H-benzofuro[3,2-c]azepine] | < 5.00 | < 5.00 |  | 
22 | Fc1ccc2c3c(oc2c1)CCNCC3 [Compound 24, 8-fluoro-2,3,4,5-tetrahydro-1H-benzofuro[2,3-d]azepine] | 7.00 to 8.00 | 6.00 to 7.00 |  | 
23 | COc1ccc2c3c(oc2c1)CCN(C1CCC1)CC3 [Compound 25, 3-cyclobutyl-8-methoxy-2,3,4,5-tetrahydro-1H-benzofuro[2,3-d]azepine] | < 5.00 | < 5.00 |  | 
24 | COc1ccc2c3c(oc2c1)CCN(C)CC3 [Compound 26, 8-methoxy-3-methyl-2,3,4,5-tetrahydro-1H-benzofuro[2,3-d]azepine] | < 5.00 | 5.00 to 6.00 |  | 
25 | COc1ccc2c3c(oc2c1)CCNCC3 [Compound 27, 8-methoxy-2,3,4,5-tetrahydro-1H-benzofuro[2,3-d]azepine] | 5.00 to 6.00 | 5.00 to 6.00 |  | 
26 | FC(F)(F)CN1CCc2oc3ccccc3c2CC1 [Compound 29, 3-(2,2,2-trifluoroethyl)-2,3,4,5-tetrahydro-1H-benzofuro[2,3-d]azepine] | < 5.00 | < 5.00 |  | 
27 | c1ccc2c3c(oc2c1)CCNCC3 [Compound 31, 2,3,4,5-tetrahydro-1H-benzofuro[2,3-d]azepine] | 6.00 to 7.00 | 6.00 to 7.00 |  | 
28 | COc1ccc2c3c(sc2c1)CCNCC3 [Compound 35, 8-methoxy-2,3,4,5-tetrahydro-1H-benzo[4,5]thieno[2,3-d]azepine] |  |  | 6.00 to 7.00 | 5.00 to 6.00
29 | CN1CCc2oc3cc(C(F)(F)F)ccc3c2CC1 [Compound 39, 3-methyl-8-(trifluoromethyl)-2,3,4,5-tetrahydro-1H-benzofuro[2,3-d]azepine] | < 5.00 | 5.00 to 6.00 |  | 
30 | CN1CCc2oc3cc(OC(F)(F)F)ccc3c2CC1 [Compound 40, 3-methyl-8-(trifluoromethoxy)-2,3,4,5-tetrahydro-1H-benzofuro[2,3-d]azepine] | < 5.00 | 5.00 to 6.00 |  | 
31 | CN1CCc2oc3cc(OCc4ccccc4)ccc3c2CC1 [Compound 41, 8-(benzyloxy)-3-methyl-2,3,4,5-tetrahydro-1H-benzofuro[2,3-d]azepine] | < 5.00 | 6.00 to 7.00 |  | 
32 | FC(F)(F)c1ccc2c3c(oc2c1)CCNCC3 [Compound 43, 8-(trifluoromethyl)-2,3,4,5-tetrahydro-1H-benzofuro[2,3-d]azepine] | 6.00 to 7.00 | 5.00 to 6.00 |  | 
33 | FC(F)(F)Oc1ccc2c3c(oc2c1)CCNCC3 [Compound 44, 8-(trifluoromethoxy)-2,3,4,5-tetrahydro-1H-benzofuro[2,3-d]azepine] | 6.00 to 7.00 | 5.00 to 6.00 |  | 
34 | c1ccc(COc2ccc3c4c(oc3c2)CCNCC4)cc1 [Compound 45, 8-(benzyloxy)-2,3,4,5-tetrahydro-1H-benzofuro[2,3-d]azepine] | 5.00 to 6.00 | 5.00 to 6.00 |  | 
35 | Fc1ccc2c3c(sc2c1)CCNCC3 [Compound 46, 8-fluoro-2,3,4,5-tetrahydro-1H-benzo[4,5]thieno[2,3-d]azepine] |  |  | > 8.00 | 7.00 to 8.00
36 | FC(F)(F)c1ccc2c3c(oc2c1)CCCNC3 [Compound 48, 8-(trifluoromethyl)-2,3,4,5-tetrahydro-1H-benzofuro[3,2-c]azepine] | 5.00 to 6.00 | 5.00 to 6.00 |  | 
37 | FC(F)(F)Oc1ccc2c3c(oc2c1)CCCNC3 [Compound 49, 8-(trifluoromethoxy)-2,3,4,5-tetrahydro-1H-benzofuro[3,2-c]azepine] | 5.00 to 6.00 | 5.00 to 6.00 |  | 
38 | c1ccc(COc2ccc3c4c(oc3c2)CCCNC4)cc1 [Compound 50, 8-(benzyloxy)-2,3,4,5-tetrahydro-1H-benzofuro[3,2-c]azepine] | < 5.00 | 5.00 to 6.00 |  | 
39 | c1ccc(COc2cccc3oc4c(c23)CNCCC4)cc1 [Compound 51, 10-(benzyloxy)-2,3,4,5-tetrahydro-1H-benzofuro[3,2-c]azepine] | < 5.00 | 5.00 to 6.00 |  | 
40 | CN1CCCc2oc3cc(C(F)(F)F)ccc3c2C1 [Compound 52, 2-methyl-8-(trifluoromethyl)-2,3,4,5-tetrahydro-1H-benzofuro[3,2-c]azepine] | < 5.00 | 5.00 to 6.00 |  | 
